Test results as given in ChEMBL document CHEMBL5247659, “Design, Structure-Activity Relationships, and In Vivo Evaluation of Potent and Brain-Penetrant Imidazo[1,2-b]pyridazines as Glycogen Synthase Kinase-3β (GSK-3β) Inhibitors” (J Med Chem, 2023).
Converted amounts (≈) assume the structure as drawn.

Columns and labels:
[1] = Inhibition of N-terminal 6-His tagged human recombinant GSK3-beta H355L mutant using FL-KRREILSRRP[ps]ERYR-NH2 as substrate incubated for 20 hrs
[2] = molecular target: Glycogen synthase kinase-3 alpha (Homo sapiens, UniProt P49840); test: Inhibition of full length GST-tagged human recombinant GSK3-alpha using FL-KRREILSRRP[ps]ERYR-NH2 as substrate incubated for 20 hrs
[3] = molecular target: Cyclin-dependent kinase 2 (Homo sapiens, UniProt P24941); test: Inhibition of CDK2 (unknown origin)
[4] = molecular target: Cyclin-dependent kinase 5 (Homo sapiens, UniProt Q00535); test: Inhibition of CDK5 (unknown origin)
[5] = molecular target: AP2-associated protein kinase 1 (Homo sapiens, UniProt Q2M2I8); test: Inhibition of AAK1 (unknown origin)
AP2-associated protein kinase 1, sequence (Q2M2I8 whole entry): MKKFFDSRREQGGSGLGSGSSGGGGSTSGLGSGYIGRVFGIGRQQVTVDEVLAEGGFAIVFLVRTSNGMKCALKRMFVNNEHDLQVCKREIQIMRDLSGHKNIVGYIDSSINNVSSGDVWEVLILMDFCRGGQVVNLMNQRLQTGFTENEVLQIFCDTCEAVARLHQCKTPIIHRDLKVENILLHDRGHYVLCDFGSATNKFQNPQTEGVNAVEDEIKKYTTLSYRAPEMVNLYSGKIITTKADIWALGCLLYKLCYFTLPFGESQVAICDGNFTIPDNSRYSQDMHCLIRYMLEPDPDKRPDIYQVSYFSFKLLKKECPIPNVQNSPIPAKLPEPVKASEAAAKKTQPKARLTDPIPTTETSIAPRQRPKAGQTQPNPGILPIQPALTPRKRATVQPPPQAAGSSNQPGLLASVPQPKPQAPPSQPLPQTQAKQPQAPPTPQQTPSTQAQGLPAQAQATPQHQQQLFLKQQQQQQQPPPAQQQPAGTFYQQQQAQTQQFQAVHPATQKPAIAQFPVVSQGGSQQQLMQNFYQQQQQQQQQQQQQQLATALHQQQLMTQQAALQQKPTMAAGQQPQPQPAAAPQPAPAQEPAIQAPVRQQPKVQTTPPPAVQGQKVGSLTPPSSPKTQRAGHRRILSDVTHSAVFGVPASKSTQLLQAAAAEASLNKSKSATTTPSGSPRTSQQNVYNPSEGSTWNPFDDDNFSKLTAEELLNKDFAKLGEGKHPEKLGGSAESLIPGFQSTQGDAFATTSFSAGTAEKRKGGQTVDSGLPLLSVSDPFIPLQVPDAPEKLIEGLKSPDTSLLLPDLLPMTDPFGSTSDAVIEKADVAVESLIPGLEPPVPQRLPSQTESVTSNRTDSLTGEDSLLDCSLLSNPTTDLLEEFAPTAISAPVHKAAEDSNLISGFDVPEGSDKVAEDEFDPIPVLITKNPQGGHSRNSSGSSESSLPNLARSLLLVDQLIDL

[6] = molecular target: Serine/threonine-protein kinase pim-1 (Homo sapiens, UniProt P11309); test: Inhibition of PIM1 (unknown origin)
Serine/threonine-protein kinase pim-1, sequence (P11309 whole entry): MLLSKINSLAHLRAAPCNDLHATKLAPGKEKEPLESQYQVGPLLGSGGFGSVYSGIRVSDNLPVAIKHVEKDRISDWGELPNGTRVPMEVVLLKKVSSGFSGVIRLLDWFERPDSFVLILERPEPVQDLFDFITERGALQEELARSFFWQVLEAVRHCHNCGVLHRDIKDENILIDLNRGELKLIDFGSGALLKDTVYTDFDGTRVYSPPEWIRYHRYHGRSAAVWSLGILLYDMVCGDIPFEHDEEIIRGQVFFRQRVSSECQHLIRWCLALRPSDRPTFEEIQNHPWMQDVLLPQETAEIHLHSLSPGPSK

[7] = molecular target: Protein kinase C theta type (Homo sapiens, UniProt Q04759); test: Inhibition of PKCtheta (unknown origin)
[8] = Metabolic stability in human liver microsomes assessed as parent compound remaining at 0.5 uM incubated for 10 mins by LC-MS/MS analysis; type: ADME, Microsome; details: read-out: Stability
[9] = Metabolic stability in mouse liver microsomes assessed as parent compound remaining at 0.5 uM incubated for 10 mins by LC-MS/MS analysis; type: ADME, Microsome; details: read-out: Stability
[10] = Plasma protein binding in mouse assessed as unbound fraction at 10 uM measured for 5 hrs by equilibrium dialysis based LC-MS/MS analysis; type: ADME, cell-free
[11] = Plasma protein binding in human assessed as unbound fraction at 10 uM measured for 5 hrs by equilibrium dialysis based LC-MS/MS analysis; type: ADME, cell-free
[12] = Permeability of compound at pH 5.5 incubated for 4 hrs by PAMPA assay; type: ADME; details: read-out: permeability
[13] = Permeability of compound at pH 7.4 incubated for 4 hrs by PAMPA assay; type: ADME; details: read-out: permeability
[14] = Permeability across apical to basolateral side in human Caco-2 cells at 3 uM incubated for 2 hrs by LC-MS/MS analysis; type: ADME, cell-based; details: read-out: permeability
[15] = Permeability across basolateral to apical side in human Caco-2 cells at 3 uM incubated for 2 hrs by LC-MS/MS analysis; type: ADME, cell-based; details: read-out: permeability
[16] = Solubility of compound in fasted state simulated intestinal fluid of pH 6.5 at 1 mg/ml measured after 18 to 24 hrs by HPLC-UV based analysis; type: ADME; details: time 18-24 hrs
[17] = Solubility of compound in fed state simulated intestinal fluid of pH 5 at 1 mg/ml measured after 18 to 24 hrs by HPLC-UV based analysis; type: ADME; details: time 18-24 hrs
[18] = Clearance in 8 hr fasted C57BL6 mouse at 2 mg/kg, iv; type: ADME, organism-based; details: in vivo
[19] = Volume of distribution at steady state in 8 hr fasted C57BL6 mouse at 2 mg/kg, iv; type: ADME, organism-based; details: in vivo, read-out: Vdss
[20] = MRT in 8 hr fasted C57BL6 mouse at 2 mg/kg, iv; type: ADME, organism-based; details: in vivo
[21] = Half life in 8 hr fasted C57BL6 mouse at 2 mg/kg, iv; type: ADME, organism-based; details: in vivo
[22] = AUC tot in 8 hr fasted C57BL6 mouse at 10 mg/kg, po; type: ADME, organism-based; set-up: dose 10 mg/kg, route po; details: in vivo
[23] = Cmax in 8 hr fasted C57BL6 mouse at 10 mg/kg, po; type: ADME, organism-based; set-up: dose 10 mg/kg, route po; details: in vivo
[24] = Oral bioavailability in 8 hr fasted C57BL6 mouse at 10 mg/kg; type: ADME, organism-based; details: in vivo
Mus musculus = test: Antialzheimer activity against triple transgenic C57BL6 mouse model assessed as reduction in tau phosphorylation at S396 at 30 mg/kg, po measured 5 hrs post dose by ELISA relative to control; type: functional; set-up: scale not given: the % may be the effect or the level left
[25] = Drug exposure in triple transgenic C57BL6 alzheimer disease mouse plasma at 30 mg/kg, po measured after 5 hrs; type: ADME, organism-based
[26] = Drug exposure in triple transgenic C57BL6 alzheimer disease mouse brain at 30 mg/kg, po measured after 5 hrs; type: ADME, organism-based; details: read-out: Ct
[27] = Ratio of drug level in brain to plasma of triple transgenic C57BL6 alzheimer disease mouse at 30 mg/kg, po measured after 5 hrs; type: ADME, organism-based; details: read-out: BPR
[28] = Unbound brain-to-plasma concentration ratio in triple transgenic C57BL6 alzheimer disease mouse model at 30 mg/kg, po measured after 5 hrs; type: ADME, organism-based; details: read-out: K(p,uu,brain)
[29] = Unbound fraction in triple transgenic C57BL6 alzheimer disease model mouse brain homogenate at 30 mg/kg, po measured after 5 hrs; type: ADME, organism-based
[30] = molecular target: Interleukin-1 receptor-associated kinase 1 (Homo sapiens, UniProt P51617); test: Inhibition of IRAK1 (unknown origin)
[31] = molecular target: Interleukin-1 receptor-associated kinase 4 (Homo sapiens, UniProt Q9NWZ3); test: Inhibition of IRAK4 (unknown origin)
Interleukin-1 receptor-associated kinase 4, sequence (Q9NWZ3 whole entry): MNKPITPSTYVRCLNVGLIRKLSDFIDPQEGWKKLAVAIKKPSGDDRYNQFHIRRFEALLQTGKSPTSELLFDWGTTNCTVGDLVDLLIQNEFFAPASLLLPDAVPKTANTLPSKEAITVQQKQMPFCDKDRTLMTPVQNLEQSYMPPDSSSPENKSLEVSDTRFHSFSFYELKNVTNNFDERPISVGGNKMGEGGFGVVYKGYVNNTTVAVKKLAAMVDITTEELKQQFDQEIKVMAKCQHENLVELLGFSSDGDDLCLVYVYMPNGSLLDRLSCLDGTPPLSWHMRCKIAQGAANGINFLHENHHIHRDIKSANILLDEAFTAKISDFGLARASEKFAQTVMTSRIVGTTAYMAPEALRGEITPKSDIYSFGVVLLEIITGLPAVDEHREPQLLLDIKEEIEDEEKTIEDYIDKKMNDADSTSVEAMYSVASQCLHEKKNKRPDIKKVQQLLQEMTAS

Aurora kinase B = Aurora kinase B (Homo sapiens, UniProt Q96GD4); test: Inhibition of Aurora B (unknown origin)
Aurora kinase B, sequence (Q96GD4 whole entry): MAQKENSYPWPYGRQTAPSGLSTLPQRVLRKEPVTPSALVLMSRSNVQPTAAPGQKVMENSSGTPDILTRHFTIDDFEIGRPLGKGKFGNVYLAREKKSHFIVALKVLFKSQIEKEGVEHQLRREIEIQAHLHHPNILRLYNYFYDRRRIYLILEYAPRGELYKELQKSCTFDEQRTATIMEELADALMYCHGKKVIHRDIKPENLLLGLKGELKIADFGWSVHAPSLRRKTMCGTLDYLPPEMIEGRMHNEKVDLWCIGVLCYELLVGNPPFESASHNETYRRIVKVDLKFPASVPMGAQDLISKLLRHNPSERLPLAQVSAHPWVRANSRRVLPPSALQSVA

[32] = molecular target: Cytoplasmic tyrosine-protein kinase BMX (Homo sapiens, UniProt P51813); test: Inhibition of BMX (unknown origin)
[33] = molecular target: Tyrosine-protein kinase BTK (Homo sapiens, UniProt Q06187); test: Inhibition of BTK (unknown origin)
Tyrosine-protein kinase BTK, sequence (Q06187 whole entry): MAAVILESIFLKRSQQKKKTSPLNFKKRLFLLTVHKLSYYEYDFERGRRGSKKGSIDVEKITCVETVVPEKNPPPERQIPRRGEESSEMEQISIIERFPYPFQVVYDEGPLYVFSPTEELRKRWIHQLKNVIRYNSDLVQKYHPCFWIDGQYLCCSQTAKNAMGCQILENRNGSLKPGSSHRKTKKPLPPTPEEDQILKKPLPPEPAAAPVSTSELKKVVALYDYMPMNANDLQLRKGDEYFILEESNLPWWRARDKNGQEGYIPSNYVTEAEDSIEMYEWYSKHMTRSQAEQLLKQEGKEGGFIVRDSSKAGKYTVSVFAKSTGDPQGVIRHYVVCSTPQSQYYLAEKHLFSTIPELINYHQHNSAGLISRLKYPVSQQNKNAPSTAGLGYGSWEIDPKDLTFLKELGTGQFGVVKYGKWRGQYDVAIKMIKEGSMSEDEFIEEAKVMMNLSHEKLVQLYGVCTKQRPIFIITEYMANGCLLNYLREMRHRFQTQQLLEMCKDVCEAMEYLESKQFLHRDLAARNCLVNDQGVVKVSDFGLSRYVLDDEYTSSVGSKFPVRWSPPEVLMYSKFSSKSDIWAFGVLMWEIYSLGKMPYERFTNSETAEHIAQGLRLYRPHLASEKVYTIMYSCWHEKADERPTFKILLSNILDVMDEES

[34] = molecular target: Casein kinase II subunit alpha (Homo sapiens, UniProt P68400); test: Inhibition of CK2A1 (unknown origin)
[35] = molecular target: Casein kinase II subunit alpha' (Homo sapiens, UniProt P19784); test: Inhibition of CK2A2 (unknown origin)
[36] = molecular target: Tyrosine-protein kinase ITK/TSK (Homo sapiens, UniProt Q08881); test: Inhibition of ITK (unknown origin)
[37] = molecular target: Tyrosine-protein kinase JAK1 (Homo sapiens, UniProt P23458); test: Inhibition of JAK1 (unknown origin)
[38] = molecular target: Tyrosine-protein kinase JAK2 (Homo sapiens, UniProt O60674); test: Inhibition of JAK2 (unknown origin)
[39] = molecular target: Tyrosine-protein kinase Lck (Homo sapiens, UniProt P06239); test: Inhibition of LCK (unknown origin)
[40] = molecular target: Tyrosine-protein kinase Lyn (Homo sapiens, UniProt P07948); test: Inhibition of LynA (unknown origin)
[41] = molecular target: Mitogen-activated protein kinase 14 (Homo sapiens, UniProt Q16539); test: Inhibition of p38alpha (unknown origin)
Mitogen-activated protein kinase 14, sequence (Q16539 whole entry): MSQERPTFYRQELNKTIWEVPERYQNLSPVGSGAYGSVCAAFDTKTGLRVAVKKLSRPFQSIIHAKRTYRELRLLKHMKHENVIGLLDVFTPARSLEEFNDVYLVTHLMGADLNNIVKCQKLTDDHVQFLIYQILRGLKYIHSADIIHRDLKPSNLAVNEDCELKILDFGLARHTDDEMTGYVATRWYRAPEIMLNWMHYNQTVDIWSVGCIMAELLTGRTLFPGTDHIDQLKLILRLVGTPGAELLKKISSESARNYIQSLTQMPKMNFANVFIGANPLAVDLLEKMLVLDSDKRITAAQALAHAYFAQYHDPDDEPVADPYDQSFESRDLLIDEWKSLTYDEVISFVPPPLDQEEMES

[42] = molecular target: Tyrosine-protein kinase SYK (Homo sapiens, UniProt P43405); test: Inhibition of SYK (unknown origin)
[43] = molecular target: Tyrosine-protein kinase TXK (Homo sapiens, UniProt P42681); test: Inhibition of TXK (unknown origin)
[44] = molecular target: Non-receptor tyrosine-protein kinase TYK2 (Homo sapiens, UniProt P29597); test: Inhibition of TYK2 (unknown origin)
[45] = molecular target: Mast/stem cell growth factor receptor Kit (Homo sapiens, UniProt P10721); test: Inhibition of cKIT (unknown origin)
[46] = molecular target: Insulin-like growth factor 1 receptor (Homo sapiens, UniProt P08069); test: Inhibition of IGF1R (unknown origin)
Aurora kinase A = Aurora kinase A (Mus musculus, UniProt P97477); test: Inhibition of mouse AURA
[47] = molecular target: MAP kinase-activated protein kinase 2 (Homo sapiens, UniProt P49137); test: Inhibition of MK2 (unknown origin)
[48] = molecular target: Platelet-derived growth factor receptor beta (Homo sapiens, UniProt P09619); test: Inhibition of PDGFRbeta (unknown origin)
Platelet-derived growth factor receptor beta, sequence (P09619 whole entry): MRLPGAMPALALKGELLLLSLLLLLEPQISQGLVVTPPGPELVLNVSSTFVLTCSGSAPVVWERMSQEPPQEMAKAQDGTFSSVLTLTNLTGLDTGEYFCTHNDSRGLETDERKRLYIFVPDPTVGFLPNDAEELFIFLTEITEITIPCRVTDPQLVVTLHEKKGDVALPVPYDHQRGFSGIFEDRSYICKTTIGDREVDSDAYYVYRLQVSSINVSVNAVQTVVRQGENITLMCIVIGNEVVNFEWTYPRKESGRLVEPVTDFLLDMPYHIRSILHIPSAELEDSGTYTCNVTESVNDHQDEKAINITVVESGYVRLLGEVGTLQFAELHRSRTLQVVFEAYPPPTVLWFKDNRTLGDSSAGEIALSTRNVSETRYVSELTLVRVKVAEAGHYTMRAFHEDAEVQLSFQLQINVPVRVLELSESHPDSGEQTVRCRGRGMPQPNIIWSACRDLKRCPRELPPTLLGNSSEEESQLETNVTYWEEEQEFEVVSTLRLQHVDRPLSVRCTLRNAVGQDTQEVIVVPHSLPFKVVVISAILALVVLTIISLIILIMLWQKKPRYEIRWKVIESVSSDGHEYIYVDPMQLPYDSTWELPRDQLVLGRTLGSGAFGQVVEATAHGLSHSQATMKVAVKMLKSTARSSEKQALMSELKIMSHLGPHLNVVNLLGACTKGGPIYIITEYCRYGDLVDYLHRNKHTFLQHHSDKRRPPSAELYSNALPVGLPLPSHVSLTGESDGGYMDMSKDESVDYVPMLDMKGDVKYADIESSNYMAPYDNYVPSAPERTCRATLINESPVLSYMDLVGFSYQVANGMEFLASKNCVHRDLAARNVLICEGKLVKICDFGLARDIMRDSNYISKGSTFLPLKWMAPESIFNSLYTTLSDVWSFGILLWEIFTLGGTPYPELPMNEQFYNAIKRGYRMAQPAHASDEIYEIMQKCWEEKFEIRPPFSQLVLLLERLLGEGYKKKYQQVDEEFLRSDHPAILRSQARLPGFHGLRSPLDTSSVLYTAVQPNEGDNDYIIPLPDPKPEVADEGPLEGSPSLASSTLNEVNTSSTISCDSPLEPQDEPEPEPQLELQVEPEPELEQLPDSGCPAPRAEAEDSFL

[49] = molecular target: Ribosomal protein S6 kinase alpha-1 (Homo sapiens, UniProt Q15418); test: Inhibition of RSK1 (unknown origin)
Ribosomal protein S6 kinase alpha-1, sequence (Q15418 whole entry): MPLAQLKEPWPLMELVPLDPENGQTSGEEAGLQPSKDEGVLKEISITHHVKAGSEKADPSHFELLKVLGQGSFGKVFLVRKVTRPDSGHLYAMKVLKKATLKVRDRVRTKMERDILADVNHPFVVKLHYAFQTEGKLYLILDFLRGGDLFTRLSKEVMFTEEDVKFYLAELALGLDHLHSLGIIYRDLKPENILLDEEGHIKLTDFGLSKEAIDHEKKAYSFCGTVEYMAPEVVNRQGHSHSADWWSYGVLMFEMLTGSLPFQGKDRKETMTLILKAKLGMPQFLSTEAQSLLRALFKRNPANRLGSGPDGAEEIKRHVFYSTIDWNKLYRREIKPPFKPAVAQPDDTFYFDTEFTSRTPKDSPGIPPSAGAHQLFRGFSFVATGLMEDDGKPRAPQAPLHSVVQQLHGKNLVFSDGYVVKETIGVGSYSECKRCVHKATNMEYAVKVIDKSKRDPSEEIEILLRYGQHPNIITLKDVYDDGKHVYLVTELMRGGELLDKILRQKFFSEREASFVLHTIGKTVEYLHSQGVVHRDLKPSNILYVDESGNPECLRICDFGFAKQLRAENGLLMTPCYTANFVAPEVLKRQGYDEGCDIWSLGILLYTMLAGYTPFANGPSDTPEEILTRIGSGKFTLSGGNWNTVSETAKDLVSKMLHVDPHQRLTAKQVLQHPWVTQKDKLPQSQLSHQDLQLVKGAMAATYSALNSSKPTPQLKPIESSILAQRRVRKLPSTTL

[50] = Aqueous solubility of compound in potassium phosphate buffer at pH 1 at 1 mg/ml measured after 18 to 24 hrs by HPLC-UV based analysis; type: physicochemical; details: time 18-24 hrs
[51] = Aqueous solubility of compound in potassium phosphate buffer at pH 7.4 at 1 mg/ml measured after 18 to 24 hrs by HPLC-UV based analysis; type: physicochemical; details: time 18-24 hrs
P-glycoprotein (ABCB1) = P-glycoprotein (ABCB1) (Homo sapiens, UniProt P08183); test: Substrate activity at P-glycoprotein in human Caco-2 cells assessed as efflux ratio of permeability across basolateral to apical side over apical to basolateral side at 3 uM incubated for 2 hrs by LC-MS/MS analysis; type: ADME, cell-based
[52] = Inhibition of tau 4R1N phosphorylation (unknown origin) at S396 residue transfected in human U2OS cells coexpressing GFP-tagged beta catenin incubated overnight by high content imaging assay

IC50 [1]: 0.00073 µM | IC50 [2]: 0.00035 µM | IC50 [3]: 1.4 µM | IC50 [4]: 6.4 µM | IC50 [5]: 0.2 µM | IC50 [6]: 0.38 µM | IC50 [7]: 0.36 µM | remaining at 10 min, 0.5 µM [8]: 17% | remaining at 10 min, 0.5 µM [9]: 7% | fraction unbound at 5 h, 10 µM [10]: 0.009 | fraction unbound at 5 h, 10 µM [11]: 0.008 | Papp at 4 h [12]: 100 ×10⁻⁶ cm/s | Papp at 4 h [13]: 80.6 ×10⁻⁶ cm/s | Papp A→B at 2 h, 3 µM [14]: 13.8 ×10⁻⁶ cm/s | Papp B→A at 2 h, 3 µM [15]: 7.1 ×10⁻⁶ cm/s | solubility [16]: 21 µg/mL (≈ 50.7 µM) | solubility [17]: 788 µg/mL (≈ 1900 µM) | clearance [18]: 3.8 mL/min/kg | Vd [19]: 1.1 L/kg | MRT [20]: 4.8 h | half-life [21]: 5.2 h | AUC [22]: 68.3 µM·h | Cmax [23]: 7.8 µM | bioavailability [24]: 64% | concentration at 5 h [25]: 3.8 µM | concentration at 5 h [26]: 1.3 µM | Kp at 5 h [27]: 0.34 | Kp uu at 5 h [28]: 0.34 | fraction unbound at 5 h [29]: 0.009 | IC50 [30]: > 2 µM | IC50 [31]: > 2 µM | IC50 (Aurora kinase B): > 2 µM | IC50 [32]: > 2 µM | IC50 [33]: > 2 µM | IC50 [34]: > 2 µM | IC50 [35]: > 2 µM | IC50 [36]: > 2 µM | IC50 [37]: > 2 µM | IC50 [38]: > 2 µM | IC50 [39]: > 2 µM | IC50 [40]: > 2 µM | IC50 [41]: > 2 µM | IC50 [42]: > 2 µM | IC50 [43]: > 2 µM | IC50 [44]: > 2 µM | IC50 [45]: > 50 µM | IC50 [46]: > 50 µM | IC50 (Aurora kinase A): > 50 µM | IC50 [47]: > 50 µM | IC50 [48]: > 50 µM | IC50 [49]: > 50 µM | solubility [50]: 1220 µg/mL (≈ 2940 µM) | solubility [51]: 14 µg/mL (≈ 33.8 µM) | efflux ratio at 2 h, 3 µM (P-glycoprotein (ABCB1)): < 1 | IC50 [52]: 0.058 µM
Compound: CC1CN(c2ccncc2NC(=O)c2ccnn3cc(-c4ccccc4)nc23)CCO1 (racemic)
Activity (Mus musculus): 52%
